Data published in article PMC6704710, “Preclinical evaluation of 3D185, a novel potent inhibitor of FGFR1/2/3 and CSF-1R, in FGFR-dependent and macrophage-dominant cancer models” (Journal of Experimental & Clinical Cancer Research : CR, 2019).

Tests used:
Assay in all cases: Eurofins kinase panel
Type in all cases: biochemical
Details in all cases: read-out: Inhibition rate (%)
NUAK2(h) = target: T1, NUAK2(h) (Homo sapiens, UniProt Q9H093)
T1 construct: purchased Eurofins (KinaseProfiler)
T1 sequence (Q9H093 1-628): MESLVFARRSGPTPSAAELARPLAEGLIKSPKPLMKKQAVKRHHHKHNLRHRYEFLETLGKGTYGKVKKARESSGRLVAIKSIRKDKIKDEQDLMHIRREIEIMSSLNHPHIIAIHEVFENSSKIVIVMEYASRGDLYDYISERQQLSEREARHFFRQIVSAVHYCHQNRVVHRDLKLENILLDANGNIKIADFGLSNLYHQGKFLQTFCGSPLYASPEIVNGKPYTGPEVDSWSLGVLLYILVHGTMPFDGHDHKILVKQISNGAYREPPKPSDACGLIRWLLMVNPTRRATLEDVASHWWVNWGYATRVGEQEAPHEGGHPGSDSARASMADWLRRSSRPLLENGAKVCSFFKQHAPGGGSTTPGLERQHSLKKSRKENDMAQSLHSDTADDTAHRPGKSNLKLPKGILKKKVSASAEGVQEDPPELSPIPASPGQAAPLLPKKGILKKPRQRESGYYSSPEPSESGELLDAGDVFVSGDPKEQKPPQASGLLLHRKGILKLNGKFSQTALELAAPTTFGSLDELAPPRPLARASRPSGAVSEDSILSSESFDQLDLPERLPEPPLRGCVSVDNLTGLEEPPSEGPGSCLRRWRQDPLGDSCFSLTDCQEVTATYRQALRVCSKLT
Experimental: (§1) Active FGFR1–4, VEGFR1, KDR, VEGFR3, PDGFRα and PDGFRβ proteins were purchased from Eurofins (Fremont, United States), and kinase activity was assessed using ELISA, as previously reported. […]. Increasing concentrations of ATP were diluted for the kinase reaction in the ATP competition assay. CSF-1R kinase activity was analyzed using the Z’-LYTE™ Kinase Assay Kit (Thermo Fisher, United States). The assay formats are described in the SelectScreen Kinase Profiling Service Zlyte protocol. IC50 values were calculated by dose-response curve fitting using Prism (Graph Pad).

MELK(h) = target: T2, MELK(h) (Homo sapiens, UniProt Q14680)
T2 construct: purchased Eurofins (KinaseProfiler)
Experimental: as §1

EphA1(h) = target: T3, EphA1(h) (Homo sapiens, UniProt P21709)
T3 construct: purchased Eurofins (KinaseProfiler)
T3 sequence (P21709 26-976): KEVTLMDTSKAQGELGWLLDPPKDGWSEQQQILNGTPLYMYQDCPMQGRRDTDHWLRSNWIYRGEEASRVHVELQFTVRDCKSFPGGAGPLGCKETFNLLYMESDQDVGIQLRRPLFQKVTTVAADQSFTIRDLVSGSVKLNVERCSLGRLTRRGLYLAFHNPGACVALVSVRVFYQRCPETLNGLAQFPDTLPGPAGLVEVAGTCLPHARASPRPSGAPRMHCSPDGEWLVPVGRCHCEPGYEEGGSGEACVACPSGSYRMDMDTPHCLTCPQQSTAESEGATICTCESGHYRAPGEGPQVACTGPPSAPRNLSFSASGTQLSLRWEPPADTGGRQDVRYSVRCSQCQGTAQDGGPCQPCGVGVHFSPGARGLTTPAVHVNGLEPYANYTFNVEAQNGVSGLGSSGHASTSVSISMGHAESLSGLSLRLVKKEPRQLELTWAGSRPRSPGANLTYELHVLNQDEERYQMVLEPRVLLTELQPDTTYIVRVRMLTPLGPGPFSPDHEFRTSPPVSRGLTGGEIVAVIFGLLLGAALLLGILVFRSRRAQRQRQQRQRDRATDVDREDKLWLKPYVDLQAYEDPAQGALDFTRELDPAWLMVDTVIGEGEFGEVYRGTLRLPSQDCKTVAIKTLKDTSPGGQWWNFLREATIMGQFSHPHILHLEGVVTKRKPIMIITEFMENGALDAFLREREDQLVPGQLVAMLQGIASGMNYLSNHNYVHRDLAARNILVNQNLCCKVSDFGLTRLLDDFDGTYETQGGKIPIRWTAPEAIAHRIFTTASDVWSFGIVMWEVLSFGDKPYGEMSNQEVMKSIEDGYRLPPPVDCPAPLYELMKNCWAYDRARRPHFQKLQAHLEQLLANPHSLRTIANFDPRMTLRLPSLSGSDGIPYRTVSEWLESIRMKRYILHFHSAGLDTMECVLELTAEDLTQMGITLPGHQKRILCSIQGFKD
Experimental: as §1

T2 sequence (Q14680 whole entry): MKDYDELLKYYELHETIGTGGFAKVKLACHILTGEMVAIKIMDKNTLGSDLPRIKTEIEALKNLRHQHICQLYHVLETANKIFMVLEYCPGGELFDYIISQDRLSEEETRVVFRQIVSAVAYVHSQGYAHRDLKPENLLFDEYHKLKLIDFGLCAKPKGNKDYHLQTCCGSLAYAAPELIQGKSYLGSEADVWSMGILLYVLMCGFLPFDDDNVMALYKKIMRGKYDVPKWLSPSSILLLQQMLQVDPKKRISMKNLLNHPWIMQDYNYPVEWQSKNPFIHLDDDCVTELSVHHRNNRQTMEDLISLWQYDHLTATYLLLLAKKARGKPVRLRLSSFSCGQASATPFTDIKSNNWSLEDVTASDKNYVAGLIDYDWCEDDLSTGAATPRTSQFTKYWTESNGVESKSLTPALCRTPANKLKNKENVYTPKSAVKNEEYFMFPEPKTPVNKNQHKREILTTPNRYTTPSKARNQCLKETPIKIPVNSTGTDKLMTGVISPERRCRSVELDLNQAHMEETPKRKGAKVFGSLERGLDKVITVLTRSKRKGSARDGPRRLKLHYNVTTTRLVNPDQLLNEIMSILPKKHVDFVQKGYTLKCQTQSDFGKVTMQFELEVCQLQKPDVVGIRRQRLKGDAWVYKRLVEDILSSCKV

What does the source list for `COc1cc(OC)c(Cl)c(-c2ccc3c(NC(=O)c4ccc(N5CCNC(C)(C)C5)cc4)n[nH]c3n2)c1Cl` [3D185]?
inhibition at 0.01 µM (NUAK2(h); 10 nM): -1%; inhibition at 0.1 µM (NUAK2(h); 100 nM): -1%; inhibition at 1 µM (NUAK2(h); 1000 nM): 0%; inhibition at 0.01 µM (MELK(h); 10 nM): -1%; inhibition at 0.1 µM (MELK(h); 100 nM): 8%; inhibition at 1 µM (MELK(h); 1000 nM): 14%; inhibition at 0.01 µM (EphA1(h); 10 nM): 0%; inhibition at 0.1 µM (EphA1(h); 100 nM): -14%; inhibition at 1 µM (EphA1(h); 1000 nM): -6%
